Key:
[1] = molecular target: Human immunodeficiency virus type 1 reverse transcriptase (Human immunodeficiency virus 1) (UniProt Q72547); assay: In vitro inhibitory activity of compound against human immunodeficiency virus type 1 (HIV-1) Reverse transcriptase at a concentration of 10 ug/mL.
[2] = molecular target: T1, Human immunodeficiency virus type 1 reverse transcriptase (Human immunodeficiency virus 1, UniProt Q72547); assay: In vitro inhibitory activity of compound against human immunodeficiency virus type 1 (HIV-1) Reverse transcriptase
[3] = molecular target: Human immunodeficiency virus type 1 reverse transcriptase (Human immunodeficiency virus 1) (UniProt Q72547); assay: In vitro inhibitory activity against human immunodeficiency virus type 1 (HIV-1) reverse transcriptase (RT) at a concentration of 10 ug/mL.
[4] = molecular target: T1, Human immunodeficiency virus type 1 reverse transcriptase; assay: In vitro inhibitory activity against human immunodeficiency virus type 1 (HIV-1) reverse transcriptase (RT)
T-cell line = assay: In vitro cytotoxicity in CD4+ human T-cells (c8166), […]; type: functional
[5] = molecular target: Human immunodeficiency virus type 1 reverse transcriptase (Human immunodeficiency virus 1) (UniProt Q72547); assay: In vitro inhibitory activity of compound against human immunodeficiency virus type 1 (HIV-1) rReverse transcriptase at a concentration of 10 ug/mL.

| inhibition [3] | IC50 [4] | Structure (SMILES) | further results |
| --- | --- | --- | --- |
| – | – | CCN1c2ncccc2C(=O)N(C)c2ccc(Cl)nc21 | inhibition [1]: 100%; IC50 [2]: 150 nM |
| – | – | CCN1c2ncccc2C(=O)N(C)c2cc(Cl)c([N+](=O)[O-])nc21 | inhibition [1]: 98%; IC50 [2]: > 1000 nM |
| 73% | 15300 nM | CC(=O)N1c2ncccc2C(=O)N(C)c2cccnc21 | – |
| 96% | 1250 nM | N#Cc1ccnc2c1NC(=O)c1cccnc1N2C1CC1 | – |
| 84% | > 1000 nM | CCN1C(=O)c2cccnc2N(C)c2ccccc21 | – |
| 84% | 6600 nM | CSCN1c2ccccc2N(C)C(=O)c2cccnc21 | – |
| – | 6 nM | Cc1cn([C@H]2C[C@H](N=[N+]=[N-])[C@@H](CO)O2)c(=O)[nH]c1=O [ZIDOVUDINE] | CC50 (T-cell line): 66000 nM |
| 18% | > 1000 nM | CCN1c2ccc(C(=O)O)cc2N(C)C(=O)c2cccnc21 | – |
| 24% | > 1000 nM | CN(C)C(=O)CN1C(=O)c2cccnc2Nc2ccccc21 | – |
| 58% | > 1000 nM | CN1C(=O)c2cccnc2N(CCO)c2ccccc21 | – |
| 56% | > 1000 nM | CCN1c2ccc([N+](=O)[O-])cc2N(C)C(=O)c2cccnc21 | – |
| – | – | CCN1C(=O)c2ccccc2N(C)c2nc(Cl)ccc21 | inhibition [5]: 76%; IC50 [2]: 3300 nM |
| 64% | > 1000 nM | CCN1c2ccc([N+](=O)[O-])cc2N(C)C(=O)c2cc(Br)cnc21 | – |
| 46% | > 1000 nM | O=C1c2cccnc2Nc2ccccc2N1CCO | – |
| 87% | 3500 nM | CCN1c2ncc(Cl)cc2C(=O)N(C)c2cccnc21 | – |
| 99% | > 1000 nM | CCN1c2ncccc2C(=O)N(C)c2cc(Cl)cnc21 | – |
| 34% | > 1000 nM | CN(C)CCN1C(=O)c2cccnc2N(C2CC2)c2ncccc21 | – |
| 85% | > 1000 nM | CC[C@@H](C)N1c2ncccc2NC(=O)c2cccnc21 | – |
| 92% | > 1000 nM | CCN1c2ncccc2C(=O)N(C)c2cc(N)cnc21 | – |

| Structure (SMILES) | inhibition [3] | IC50 [4] | further results |
| --- | --- | --- | --- |
| C#CN1c2ccccc2N(C)C(=O)c2cccnc21 | 97% | 650 nM | – |
| CCc1ccnc2c1NC(=O)c1cccnc1N2CC | 100% | 110 nM | – |
| CCN1c2ncccc2C(=O)N(C)c2cc(C)c(C)nc21 | 100% | 240 nM | – |
| CCN1c2ccccc2NC(=O)c2cccnc21 | 99% | 380 nM | – |
| CCN1c2cc(C)c(C)cc2N(C)C(=O)c2cccnc21 | 100% | 40 nM | – |
| CC(=O)N1c2cc(C)c(C)cc2N(C)C(=O)c2cccnc21 | 96% | 420 nM | – |
| CCN1c2cc([N+](=O)[O-])ccc2N(C)C(=O)c2cccnc21 | 99% | 400 nM | – |
| CCN1c2ccc(C)cc2C(=O)N(C)c2cccnc21 | 99% | 580 nM | – |

From ChEMBL document CHEMBL1125844, “Novel non-nucleoside inhibitors of HIV-1 reverse transcriptase. 1. Tricyclic pyridobenzo- and dipyridodiazepinones” (J Med Chem, 1991)
